# According to US20020016443A1, “Antiproliferative factor” (priority 1996, published 2002):
# Tested on: APF activity on primary normal bladder epithelial cells
# Experiment: Blocking of APF antiproliferative activity by recombinant growth factors (^3H-thymidine incorporation)
# Type: cell-based, human
# Conditions: co-incubation with low molecular weight IC urine fractions; HB-EGF 10, 30 and 100 ng/ml; EGF, IGF1 up to about 12 and 25 fold normal levels
# Procedure: ^3H-Thymidine Incorporation. Primary normal adult human bladder epithelial cells (HBE) were grown from biopsies obtained at autopsy from patients who had no history of bladder disorder. HBE cells were plated at a density of 1×10^4 cells/well onto 96 well tissue culture plates and incubated at 37° C. overnight (resulting in approximately 60% confluence the following day). The medium was then changed to MEM containing only 1% glutamine and 1% antibiotic/ antimycotic solution, and the cells were incubated at 37° C. overnight. […] Cells were then trypsinized, and insoluble cell contents harvested and methanol-fixed onto glass fiber filter paper, as previously described^62; the amount of radioactivity incorporated was determined as counts per minute using a Beckman LS 3801 scintillation counter. […]
# To determine whether the antiproliferative effect of the APF on bladder epithelial cells might be due to a decrease in HB-EGF production, primary normal bladder epithelial cells were simultaneously incubated with varying levels of recombinant HB-EGF, EGF, or IGF1 and low molecular weight urine fractions from IC patients. […] This effect was evident using a concentration of HB-EGF (10 ng/ml) in the range previously determined for normal controls (2-22 ng/ml, mean 6.33 ng/ml) 12 as well as higher concentrations (30 and 100 ng/ml). […]
substance,measurement,value
insulin-like growth factor 1 [IGF1],inhibition of IC urine antiproliferative activity by recombinant growth factor,insufficient to completely inhibit APF activity
epidermal growth factor [EGF],inhibition of IC urine antiproliferative activity by recombinant growth factor,insufficient to completely inhibit APF activity
